Laboratory results as given in patent publication US10093642B2, “Multitarget hedgehog pathway inhibitors and uses thereof” (UNIVERSITA' DEGLI STUDI DI SIENA, priority 2013, dated 2018).

Assays:
SMO receptor = molecular target: T1, SMO receptor (UniProt P56726); assay: Displacement assay with Bodipy-cyclopamine in HEK293 cells transfected with SMO; conditions: BC 5 nM, 2 h at 37° C., read-out: IC50 of blocking Bodipy-cyclopamine (BC) binding to SMO
T1 construct: fused on or other part: Possibly a C-terminal Myc3 tag, if the construct is Smo-Myc3 of Chen et al. 2002
Description: (A) HEK293 cells were transiently transfected with pcDNA-SMO vector and incubated with Bodipy-cyclopamine (BC 5 nM) alone (control) or in the presence of increasing concentrations of KAAD (Cyclopamine-KAAD, Smoothened antagonist) or increasing concentrations of Glabrescione B, as indicated. Bodipy-cyclopamine binding (BC binding) (green) is visualized using fluorescence microscopy in a representative field. (B) The concentration-response curve for Glabrescione B was obtained by quantification of the Bodipy-cyclopamine fluorescence in three photographs for each coverslip. The values are expressed as a percentage of the fluorescence detected in control HEK293 cells incubated with Bodipy-cyclopamine alone. The data shown are the means of triplicates derived from a representative experiment of three. Error bars indicate SD (standard deviation). […]
To investigate the binding properties of Glabrescione B to SMO receptor, a competition assay was carried out. In this experiment it was analyzed whether Glabrescione B could compete with Bodipy-cyclopamine (BC; 5 nM USBiological, cat. # B2527), a fluorescent derivative of cyclopamine, which is known to interact with the SMO receptor at the level of its heptahelical bundle. […] Cells were analyzed with a Carl Zeiss microscope (Axio Observer ZI). […] Bodipy-cyclopamine (green) and DAPI (blue) signals were analyzed in 3-4 representative fields for coverslips.

MEF-SuFu−/− cells = assay: Gli1 mRNA (quantitative RT-PCR) in MEF-SuFu−/− cells; format: cell-based, mouse; conditions: different concentrations, 48 h
Description: FIG. 9. Confluent MEF-SuFu^−/− cells were treated with DMSO (0.5%, vehicle), GANT61 (10 μM, as positive control) or different concentrations of Glabrescione B for 48 h. Gli1 mRNA levels were determined by quantitative RT-PCR, normalizing to HPRT expression. Error bars indicate SD.
To analyze the antagonist properties of Glabrescione B under more physiological conditions, the inventors used MEF-Ptch^−/− cells, embryo fibroblasts derived from Ptch^−/− mouse, in which the activation of Hh signaling is consequence of Ptch1 deletion. Since Patched acts as upstream repressor of SMO, inhibition of the Hedgehog pathway from Patched is prevented and the Hedgehog pathway is constitutively activated in this cell lines, which turned out to be a reliable cellular model for studying the effect of Hedgehog inhibitors. […]
To further elucidate the concept of downstream pathway inhibition by Glabrescione B, the inventors used MEF-SuFu^−/− cells (a kind gift by R. Toftgard, Karolinska Institutet, Sweden, Svärd, J. et al, 2006), in which the downstream Hh pathway activation is consequence of SuFu genetic ablation. Confluent cells were treated with Glabrescione B at the amount indicated in the FIG. 9 and Gli1 expression levels were determined by quantitative RT-PCR as previously described. […]

Jun/AP1activation = assay: Selectivity: unrelated signal transduction pathway Jun/AP1 activation; format: cell-based
[1] = test system: Cancer stem cells (CSCs) isolated from murine Ptch+/− MB; assay: Neurosphere forming assay (self-renewal of MB CSCs); format: cell-based; conditions: seven days of treatment; KAAD 1 μM as comparator
Description: FIG. 14. […] After seven days of treatment the number of secondary neurospheres derived from a known number of single cells was counted. The self-renewal CSCs capability is expressed as percentage of neurospheres forming cells.
Hh activity preferentially associates to stemness features. For this reason, the Hh pathway antagonist Glabrescione B has also been investigated for its ability to modulate the behavior of MB cancer stem cells (CSCs).
Another experiment was carried out to determine the ability of Glabrescione B to suppress MB CSCs self-renewal. To this aim neurospheres derived from murine Ptch^+/− MB were treated with Glabrescione B at different concentrations and the percentage of neurospheres-forming cells was measured. For the neurosphere forming assay, cells were plated at clonal density (1-2 cells/mm2) into 96-well plates and cultured in selective medium as described above.
The results shown in FIG. 14 indicate that Glabrescione B has an inhibitory effect on self-renewal of cancer stem cells.

GST = GST (Schistosoma japonicum, UniProt P08515); assay: NMR relaxation speed of Glabrescione B protons in presence of GST alone; format: binding; conditions: 0.412 mM
Chain of GST (P08515 whole entry): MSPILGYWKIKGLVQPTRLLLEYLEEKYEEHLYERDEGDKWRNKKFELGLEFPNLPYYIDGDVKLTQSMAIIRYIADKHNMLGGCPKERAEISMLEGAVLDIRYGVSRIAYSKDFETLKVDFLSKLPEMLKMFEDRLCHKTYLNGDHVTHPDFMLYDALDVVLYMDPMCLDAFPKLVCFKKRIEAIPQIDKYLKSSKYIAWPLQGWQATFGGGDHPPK

COc1cc(OC)c2c(=O)c(-c3ccc(OCC=C(C)C)c(OCC=C(C)C)c3)coc2c1 [Glabrescione B, 3-(3′,4′-bis(3-methylbut-2-enyloxy)phenyl)-5,7-dimethoxy-4H-chromen-4-one]
IC50 (SMO receptor): 1 µM | Gli1 expression levels (quantitative RT-PCR) (MEF-SuFu−/− cells): significant reduction of the high expression levels of Gli1 | inhibition at 30 µM (Jun/AP1activation): 0% | MB CSCs self-renewal (percentage of neurospheres-forming cells) [1]: suppressive effect on MB CSCs self-renewal | Normalized relaxation speed ΔR/Rf, GlaB:GST 1:150 (GST; proton 1): 0.024 | Normalized relaxation speed ΔR/Rf, GlaB:GST 1:150 (GST; proton 2′): 0.058 | Normalized relaxation speed ΔR/Rf, GlaB:GST 1:150 (GST; proton 3): 0.100 | Normalized relaxation speed ΔR/Rf, GlaB:GST 1:150 (GST; proton 4′): 0 | Normalized relaxation speed ΔR/Rf, GlaB:GST 1:150 (GST; proton 8): 0 | Normalized relaxation speed ΔR/Rf, GlaB:GST 1:150 (GST; proton 12): 0.034 | Normalized relaxation speed ΔR/Rf, GlaB:GST 1:150 (GST; proton 15): 0.138 | Normalized relaxation speed ΔR/Rf, GlaB:GST 1:150 (GST; proton 19): 0
